From PubChem BioAssay AID1918940 (Molecular Pharmacology Branch, DTP, NCI, 2023)

System: NCI-H211 complex spheroid viability
Assay: Anticancer human tumor NCI-H211 cell line growth inhibition [LSD1];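 note: luminescent viability read after seven days of drug exposure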;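 for viability, T/C: 100% = DMSO vehicle control viability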
Conditions: for IC50: curve of first compound; for viability, T/C: stronger effect = lower value; active = viability on the fitted dose curve at most 10% of control; inactive = the rest
Procedure, shortened: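 Drug combinations with the LSD1 inhibitor iadademstat tested on tumor cells co-cultured as spheroids with endothelial cells and mesenchymal stem cells. Concentrations descended in half-log increments from clinical Cmax or 10 microM.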

[1] = second compound 0.1 µM, first compound 0.000316 µM
[2] = second compound 0.1 µM, first compound 0.001 µM
[3] = second compound 0.1 µM, first compound 0.00316 µM
[4] = second compound 0.1 µM, first compound 0.01 µM
[5] = second compound 0.1 µM, first compound 0.0316 µM
[6] = second compound 0.1 µM, first compound 0.1 µM
[7] = second compound 0.316 µM, first compound 0.000316 µM
[8] = second compound 0.316 µM, first compound 0.001 µM
[9] = second compound 0.316 µM, first compound 0.00316 µM
[10] = second compound 0.316 µM, first compound 0.01 µM
[11] = second compound 0.316 µM, first compound 0.0316 µM
[12] = second compound 0.316 µM, first compound 0.1 µM
[13] = second compound 1 µM, first compound 0.000316 µM
[14] = second compound 1 µM, first compound 0.001 µM
[15] = second compound 1 µM, first compound 0.00316 µM
[16] = second compound 1 µM, first compound 0.01 µM
[17] = second compound 1 µM, first compound 0.0316 µM
[18] = second compound 1 µM, first compound 0.1 µM
[19] = second compound 3.16 µM, first compound 0.000316 µM
[20] = second compound 3.16 µM, first compound 0.001 µM
[21] = second compound 3.16 µM, first compound 0.00316 µM
[22] = second compound 3.16 µM, first compound 0.01 µM
[23] = second compound 3.16 µM, first compound 0.0316 µM
[24] = second compound 3.16 µM, first compound 0.1 µM
[25] = second compound 10 µM, first compound 0.000316 µM
[26] = second compound 10 µM, first compound 0.001 µM
[27] = second compound 10 µM, first compound 0.00316 µM
[28] = second compound 10 µM, first compound 0.01 µM
[29] = second compound 10 µM, first compound 0.0316 µM
[30] = second compound 10 µM, first compound 0.1 µM
[31] = second compound 0.1 µM, first compound 0.00949 µM
[32] = second compound 0.1 µM, first compound 0.03 µM
[33] = second compound 0.1 µM, first compound 0.0949 µM
[34] = second compound 0.1 µM, first compound 0.3 µM
[35] = second compound 0.1 µM, first compound 0.949 µM
[36] = second compound 0.1 µM, first compound 3 µM
[37] = second compound 0.316 µM, first compound 0.00949 µM
[38] = second compound 0.316 µM, first compound 0.03 µM
[39] = second compound 0.316 µM, first compound 0.0949 µM
[40] = second compound 0.316 µM, first compound 0.3 µM
[41] = second compound 0.316 µM, first compound 0.949 µM
[42] = second compound 0.316 µM, first compound 3 µM
[43] = second compound 1 µM, first compound 0.00949 µM
[44] = second compound 1 µM, first compound 0.03 µM
[45] = second compound 1 µM, first compound 0.0949 µM
[46] = second compound 1 µM, first compound 0.3 µM
[47] = second compound 1 µM, first compound 0.949 µM
[48] = second compound 1 µM, first compound 3 µM
[49] = second compound 3.16 µM, first compound 0.00949 µM
[50] = second compound 3.16 µM, first compound 0.03 µM
[51] = second compound 3.16 µM, first compound 0.0949 µM
[52] = second compound 3.16 µM, first compound 0.3 µM
[53] = second compound 3.16 µM, first compound 0.949 µM
[54] = second compound 3.16 µM, first compound 3 µM
[55] = second compound 10 µM, first compound 0.00949 µM
[56] = second compound 10 µM, first compound 0.03 µM
[57] = second compound 10 µM, first compound 0.0949 µM
[58] = second compound 10 µM, first compound 0.3 µM
[59] = second compound 10 µM, first compound 0.949 µM
[60] = second compound 10 µM, first compound 3 µM

CC(C)CC(NC(=O)C(Cc1ccccc1)NC(=O)c1cnccn1)B(O)O (stereo not given) + NC1CCC(NC2CC2c2ccccc2)CC1
1.68 nM: IC50 (second compound 3.16 µM)
2 nM: IC50 (second compound 0.1 µM)
1.79 nM: IC50 (second compound 1 µM)
2.05 nM: IC50 (second compound 0.316 µM)
inactive: viability, T/C [1] 73.8% | viability, T/C [2] 88.6% | viability, T/C [3] 29.3% | viability, T/C [7] 70.9% | viability, T/C [8] 76% | viability, T/C [9] 35.8% | viability, T/C [13] 62.5% | viability, T/C [14] 72.7% | viability, T/C [15] 32.7% | viability, T/C [19] 64.3% | viability, T/C [20] 72.3% | viability, T/C [21] 27.4% | viability, T/C [25] 44.9% | viability, T/C [26] 45.3% | viability, T/C [27] 14.2%
active: viability, T/C [4] 2.16% | viability, T/C [5] 3.13% | viability, T/C [6] 6.8% | viability, T/C [10] 1.76% | viability, T/C [11] 0.22% | viability, T/C [12] 0.13% | viability, T/C [16] 1.57% | viability, T/C [17] 0.23% | viability, T/C [18] 2.46% | viability, T/C [22] 1.43% | viability, T/C [23] 0.97% | viability, T/C [24] 0.14% | viability, T/C [28] 0.55% | viability, T/C [29] 0.17% | viability, T/C [30] 0.14%
< 0.316 nM: IC50 (second compound 10 µM)

CC(C)CC(NC(=O)CNC(=O)c1cc(Cl)ccc1Cl)B1OC(=O)CC(CC(=O)O)(C(=O)O)O1 (stereo not given) + NC1CCC(NC2CC2c2ccccc2)CC1
< 0.316 nM: IC50 (second compound 10 µM)
18 nM: IC50 (second compound 0.316 µM)
inactive: viability, T/C [1] 81.6% | viability, T/C [2] 90.2% | viability, T/C [3] 103% | viability, T/C [4] 65.1% | viability, T/C [5] 22.5% | viability, T/C [7] 81.5% | viability, T/C [8] 93.3% | viability, T/C [9] 111% | viability, T/C [10] 76.9% | viability, T/C [11] 23.5% | viability, T/C [13] 79.3% | viability, T/C [14] 85% | viability, T/C [15] 109% | viability, T/C [16] 65.3% | viability, T/C [17] 21.4% | viability, T/C [19] 59.8% | viability, T/C [20] 65% | viability, T/C [21] 95.6% | viability, T/C [22] 53% | viability, T/C [23] 18.1% | viability, T/C [25] 44.9% | viability, T/C [26] 37.5% | viability, T/C [27] 51.2% | viability, T/C [28] 35.5% | viability, T/C [29] 12%
15.3 nM: IC50 (second compound 1 µM)
15.4 nM: IC50 (second compound 0.1 µM)
11.8 nM: IC50 (second compound 3.16 µM)
active: viability, T/C [6] 7.53% | viability, T/C [12] 7.18% | viability, T/C [18] 6.25% | viability, T/C [24] 5.75% | viability, T/C [30] 2.35%

COc1cc(Nc2ncc3c(n2)-c2ccc(Cl)cc2C(c2c(F)cccc2OC)=NC3)ccc1C(=O)O + NC1CCC(NC2CC2c2ccccc2)CC1
active: viability, T/C [4] 8.09% | viability, T/C [5] 2.59% | viability, T/C [6] 2.93% | viability, T/C (second compound 0.1 µM, first compound 0.316 µM) 2.92% | viability, T/C (second compound 0.1 µM, first compound 1 µM) 2.47% | viability, T/C [10] 4.21% | viability, T/C [11] 3.27% | viability, T/C [12] 2.5% | viability, T/C (second compound 0.316 µM, first compound 0.316 µM) 2.51% | viability, T/C (second compound 0.316 µM, first compound 1 µM) 2.35% | viability, T/C [16] 5.71% | viability, T/C [17] 3.16% | viability, T/C [18] 6.76% | viability, T/C (second compound 1 µM, first compound 0.316 µM) 2.71% | viability, T/C (second compound 1 µM, first compound 1 µM) 1.94% | viability, T/C [22] 4.91% | viability, T/C [23] 2.4% | viability, T/C [24] 2.55% | viability, T/C (second compound 3.16 µM, first compound 0.316 µM) 1.47% | viability, T/C (second compound 3.16 µM, first compound 1 µM) 2.19% | viability, T/C [28] 2.05% | viability, T/C [29] 1.29% | viability, T/C [30] 1.19% | viability, T/C (second compound 10 µM, first compound 0.316 µM) 1.28% | viability, T/C (second compound 10 µM, first compound 1 µM) 1.12%
inactive: viability, T/C [3] 34% | viability, T/C [9] 34.6% | viability, T/C [15] 47.9% | viability, T/C [21] 31.8% | viability, T/C [27] 22.4%
< 3.16 nM: IC50 (second compound 0.1 µM) | IC50 (second compound 0.316 µM) | IC50 (second compound 1 µM) | IC50 (second compound 3.16 µM) | IC50 (second compound 10 µM)

Cn1ncnc1C1c2n[nH]c(=O)c3cc(F)cc(c23)NC1c1ccc(F)cc1 (stereo not given) + NC1CCC(NC2CC2c2ccccc2)CC1
< 0.316 nM: IC50 (second compound 10 µM)
1.56 nM: IC50 (second compound 1 µM)
active: viability, T/C [4] 4.59% | viability, T/C [5] 1.93% | viability, T/C [6] 2.12% | viability, T/C [10] 4.65% | viability, T/C [11] 2.59% | viability, T/C [12] 2.43% | viability, T/C [16] 4.84% | viability, T/C [17] 2.31% | viability, T/C [18] 2.49% | viability, T/C [22] 3.84% | viability, T/C [23] 2.11% | viability, T/C [24] 2.23% | viability, T/C [28] 1.98% | viability, T/C [29] 0.92% | viability, T/C [30] 1.15%
inactive: viability, T/C [1] 69.9% | viability, T/C [2] 61.4% | viability, T/C [3] 39.8% | viability, T/C [7] 67% | viability, T/C [8] 66.3% | viability, T/C [9] 30.7% | viability, T/C [13] 59% | viability, T/C [14] 59.9% | viability, T/C [15] 35.7% | viability, T/C [19] 54.7% | viability, T/C [20] 53.5% | viability, T/C [21] 33.7% | viability, T/C [25] 33.6% | viability, T/C [26] 31.5% | viability, T/C [27] 16%
1.68 nM: IC50 (second compound 0.316 µM)
1.91 nM: IC50 (second compound 0.1 µM)
1.24 nM: IC50 (second compound 3.16 µM)

NS(=O)(=O)OCC1CC(n2ccc3c(NC4CCc5ccccc54)ncnc32)CC1O (stereo not given) + NC1CCC(NC2CC2c2ccccc2)CC1
active: viability, T/C [32] 8.79% | viability, T/C [33] 2.05% | viability, T/C [34] 4.77% | viability, T/C [35] 0.6% | viability, T/C [36] 0.42% | viability, T/C [38] 7.48% | viability, T/C [39] 2.74% | viability, T/C [40] 0.89% | viability, T/C [41] 0.5% | viability, T/C [42] 0.48% | viability, T/C [44] 7.52% | viability, T/C [45] 2.66% | viability, T/C [46] 1.51% | viability, T/C [47] 5.93% | viability, T/C [48] 0.59% | viability, T/C [50] 6.38% | viability, T/C [51] 1.67% | viability, T/C [52] 0.54% | viability, T/C [53] 0.21% | viability, T/C [54] 5.61% | viability, T/C [55] 7.36% | viability, T/C [56] 4.1% | viability, T/C [57] 0.72% | viability, T/C [58] 0.29% | viability, T/C [59] 0.22% | viability, T/C [60] 0.19%
inactive: viability, T/C [31] 17.3% | viability, T/C [37] 16.2% | viability, T/C [43] 15.2% | viability, T/C [49] 11.4%
< 9.49 nM: IC50 (second compound 0.1 µM) | IC50 (second compound 0.316 µM) | IC50 (second compound 1 µM) | IC50 (second compound 3.16 µM) | IC50 (second compound 10 µM)

O=C(C=Cc1cccc(S(=O)(=O)Nc2ccccc2)c1)NO + NC1CCC(NC2CC2c2ccccc2)CC1
inactive: viability, T/C [31] 15.1% | viability, T/C [37] 18.4% | viability, T/C [43] 17.3% | viability, T/C [49] 11.6%
< 9.49 nM: IC50 (second compound 0.1 µM) | IC50 (second compound 0.316 µM) | IC50 (second compound 1 µM) | IC50 (second compound 3.16 µM) | IC50 (second compound 10 µM)
active: viability, T/C [32] 3.51% | viability, T/C [33] 2.43% | viability, T/C [34] 1.81% | viability, T/C [35] 0.5% | viability, T/C [36] 0.09% | viability, T/C [38] 3.02% | viability, T/C [39] 8.25% | viability, T/C [40] 1.92% | viability, T/C [41] 1.26% | viability, T/C [42] 0.1% | viability, T/C [44] 3.31% | viability, T/C [45] 4.77% | viability, T/C [46] 1.92% | viability, T/C [47] 3.19% | viability, T/C [48] 5.1% | viability, T/C [50] 2.91% | viability, T/C [51] 4.81% | viability, T/C [52] 2.66% | viability, T/C [53] 0.27% | viability, T/C [54] 0.1% | viability, T/C [55] 9.56% | viability, T/C [56] 2.44% | viability, T/C [57] 2.03% | viability, T/C [58] 1.32% | viability, T/C [59] 0.15% | viability, T/C [60] 0.17%
